Tests used:
[1] = tested on: HCT116Ox oxaliplatin-resistant colorectal carcinoma cells; assay: Sulforhodamine B antiproliferative assay, HCT116Ox; assay type: cell-based, human; conditions: 24 h drug exposure + 72 h recovery, SRB, read-out: Antiproliferative activity (IC50) HCT116Ox Colon
[2] = tested on: A2780Cis cisplatin-resistant ovarian carcinoma cells; assay: Sulforhodamine B antiproliferative assay, A2780Cis; assay type: cell-based, human; conditions: 24 h drug exposure + 72 h recovery, SRB
A2780 cancer cells [3] = conditions: A2780, 20 μM verapamil, normalised Os
Procedure: (§1) In vitro biological studies
Cell culture. All cell lines were obtained from the European Collection of Cell Cultures (ECACC). […]
supplemented with 10% foetal calf serum, 1% 2 mM glutamine and 1% penicillin/streptomycin.
HCT116, HCT1116Ox, HCT116p21-/- and HCT116p53-/-, all of colon origin, were grown in McCoy’s Modified 5A medium supplemented with 10% foetal calf serum, 1% 2 mM glutamine and 1% penicillin/streptomycin. HOF normal ovarian fibroblasts were grown in fibroblast growth medium supplemented with 2% foetal calf serum, 1% 2 mM penicillin/streptomycin and 1% fibroblast growth factor. Cells were grown as adherent monolayers in 75 cm2 culture flasks at 310 K in a 5% CO2 humidified atmosphere and passaged at regular intervals using trypsin-EDTA.
After this time, the cells were washed with PBS and supplied
Sulforhodamine B cell viability colorimetric assay. Briefly, 5000 cells were seeded in a 96-well plate […]
mM) were prepared in medium with 5% v/v DMSO (concentration was determined after drug exposure by ICP-OES analysis for metal content). […] Cell viability was determined using the Sulforhodamine B assay.1 Cells […]
50% cell death occurred) are reported as averages with calculated standard deviations. Experiments were performed in triplicate as part as two independent experiments, and statistics calculated using two-tailed t-test assuming unequal variances (Welch’s t-test). […]

[4] = tested on: HCT116p21-/- P21-knockout colorectal carcinoma cells; assay: Sulforhodamine B antiproliferative assay, HCT116p21-/-; assay type: cell-based, human; conditions: 24 h drug exposure + 72 h recovery, SRB, read-out: Antiproliferative activity (IC50) HCT116p21-/- Colon
[5] = tested on: HCT116 colorectal carcinoma cells; assay: Sulforhodamine B antiproliferative assay, HCT116; assay type: cell-based, human; conditions: 24 h drug exposure + 72 h recovery, SRB; read-out: Antiproliferative activity (IC50) HCT116 Colon
[6] = tested on: MRC5 human lung fibroblasts; assay: Sulforhodamine B antiproliferative assay, MRC5; assay type: cell-based; conditions: 24 h drug exposure + 72 h recovery, SRB; non-cancer fibroblasts
Procedure: as §1
(§2) Sulforhodamine B cell viability colorimetric assay.
(§3) by ICP-OES analysis for metal content).
(§4) 72 h recovery time (310 K).
(§5) using slowly-running tap water and air dried.
(§6) Data were processed using Microsoft Excel
IC50 values (concentrations at which […]
After this time, cells were […]

[7] = tested on: AB wild-type zebrafish embryos; assay type: in vivo; conditions: 96 h exposure, read-out: LC50 (Danio rerio) AB-WT
[8] = tested on: A549 lung carcinoma cells; assay: Sulforhodamine B antiproliferative assay, A549; assay type: cell-based, human; conditions: 24 h drug exposure + 72 h recovery, SRB
[9] = tested on: Singapore wild-type zebrafish embryos; assay type: in vivo, Danio rerio; conditions: for LC50: zebrafish embryos, 96 h exposure, read-out: LC50 (Danio rerio) SG-WT
Procedure: (§7) In vivo biological studies […]
(§8) wild-type zebrafish (SGWT) embryos (< 5 dpf). All animals were maintained in accordance with ASPA […]
(§9) maintained. Light cycle: 14 hours day, 10 hours night.
1 L breeding tank. Pairs were set up the previous evening. Males and females were separated by a divider. The divider was removed around 9am (dawn). Embryos were collected and placed into petri dishes with fresh egg water. […]

A2780 cancer cells [10] = assay: ROS/superoxide detection by flow cytometry, A2780; conditions: A2780, 24 h, 1.0 × IC50 (pyocyanin positive control 0.1 mM); for % Population Q1 FL1-H- / FL2-H+: superoxide only; for % Population Q3 FL1-H+ / FL2-H-: total ROS only
Procedure: (§10) Reactive oxygen species (ROS) determination using flow cytometry. The generation of ROS and
(§11) superoxide in A2780 ovarian cancer cells was evaluated using the ROS/Superoxide detection kit (Enzo
(§12) Life Sciences) following the manufacturer’s protocol.
(§13) cells per well, and incubated for 24 h (310 K). After this time, cells were exposed to equipotent
The pellets were re-suspended in 500
(§14) μL PBS and stained with green fluorescent reagent for total ROS reading in the FL1-green channel (2
(§15) μL) and orange fluorescent reagent for superoxide reading in the FL2-red channel (2 μL). Positive
(§16) control samples were treated with pyocyanin (5 μL, 30 min). Single stained positive control samples
(§17) were used for compensation purposes. Data were obtained using a Becton Dickson FACScan Flow
(§18) Cytometer and processed using FlowJo V10 for Windows.

[11] = tested on: A2780 ovarian carcinoma cells; assay: Sulforhodamine B antiproliferative assay, A2780; assay type: cell-based, human; conditions: 24 h drug exposure + 72 h recovery in drug-free medium, SRB; read-out: Antiproliferative activity (IC50) A2780 Ovarian
[12] = tested on: HCT116p53-/- P53-knockout colorectal carcinoma cells; assay: Sulforhodamine B antiproliferative assay, HCT116p53-/-; assay type: cell-based, human; conditions: 24 h drug exposure + 72 h recovery, SRB, read-out: Antiproliferative activity (IC50) HCT116p53-/- Colon
[13] = tested on: Singapore wild-type zebrafish; conditions: 1 or 2× LC50, 96 h, green ROS probe, confocal
Procedure: as §7, §8, §9
1 L breeding tank. Pairs were set up the previous evening. Males and females were separated by a divider. The divider was removed around 9am (dawn). Embryos were collected and placed into petri dishes with fresh egg water.
Confocal microscopy (zebrafish). […]
or positive control samples.

[14] = tested on: HOF human ovarian fibroblasts; assay: ROS/superoxide detection by flow cytometry, HOF; conditions: 24 h, 1.0 × IC50 (pyocyanin positive control 0.1 mM); for % Population Q2 FL1-H+ / FL2-H+: ROS and superoxide; for % Population Q1 FL1-H- / FL2-H+: superoxide only; for % Population Q3 FL1-H+ / FL2-H-: total ROS only
Procedure: as §10, §11, §12, §13
The pellets were re-suspended in 500
as §14, §15, §16, §17, §18

[15] = tested on: HOF human ovarian fibroblasts; assay: Sulforhodamine B antiproliferative assay, HOF; assay type: cell-based; conditions: 24 h drug exposure + 72 h recovery, SRB; non-cancer fibroblasts
Procedure: as §1, §2, §3, §4, §5, §6

[16] = tested on: Tubingen wild-type zebrafish embryos; assay: Zebrafish embryo toxicity (FET) test, TU-WT; assay type: in vivo; conditions: 96 h exposure, read-out: LC50 (Danio rerio) TU-WT
[17] = tested on: HCT116 human colorectal cancer cells xenografts; conditions: cited from earlier work
[18] = CV vs Ag/AgCl, 100 mV/s, 10^–3 M, CH3CN; electrochemically reversible

SMILES | IC50 [1] [µM] | IC50 [2] [µM] | IC50 [4] [µM] | IC50 [5] [µM] | IC50 [6] [µM] | LC50 [7] [µM] | IC50 [8] [µM] | LC50 [9] [µM] | % Population Q4 FL1-H- / FL2-H- (A2780 cancer cells [10]) [%] | % Population Q1 FL1-H- / FL2-H+ (A2780 cancer cells [10]) [%] | % Population Q3 FL1-H+ / FL2-H- (A2780 cancer cells [10]) [%] | IC50 [11] [µM] | IC50 [12] [µM] | ROS generated in vivo in zebrafish [13] | % Population Q4 FL1-H- / FL2-H- [14] [%] | % Population Q2 FL1-H+ / FL2-H+ [14] [%] | % Population Q1 FL1-H- / FL2-H+ [14] [%] | % Population Q3 FL1-H+ / FL2-H- [14] [%] | IC50 [15] [µM] | LC50 [16] [µM] | further results
Cc1ccc(C(C)C)cc1.Cc1ccc(S(=O)(=O)[N-]C(c2ccccc2)C([NH-])c2ccccc2)cc1.[Os+2] (stereo not shown) [Complex 1, [Os(p-cymene)(Ts-DPEN)]] | 51 ± 2 | 21.6 ± 0.2 | 106 ± 2 | 37 ± 1 | 21.4 ± 0.7 | 4.3 ± 0.7 | 21.1 ± 0.3 | 2.4 ± 0.4 | 2.4 ± 0.9 | 1.2 ± 0.2 | 0.3 ± 0.1 | 15.5 ± 0.5 | 62 ± 3 | elevated levels of ROS | 7.3 ± 0.5 | 38 ± 1 | 9.1 ± 0.8 | 45.4 ± 0.7 | 29.9 ± 0.5 | 2.6 ± 0.3 | % accumulation (recovery time) 48 h (A2780 cancer cells [3]): 30 ± 2%; % accumulation (recovery time) 72 h (A2780 cancer cells [3]): 17.8 ± 0.3%
CN(C)c1ccc(N=Nc2ccccn2)cc1.Cc1ccc(C(C)C)cc1.F[P-](F)(F)(F)(F)F.[I][Os+] [Complex 10, [Os(Azpy-NMe2)(p-cymene)I]PF6] | 0.96 ± 0.05 | 0.15 ± 0.01 | 1.64 ± 0.08 | 0.26 ± 0.03 | 4.5 ± 0.3 | 16.8 ± 0.8 | 1.1 ± 0.2 | 24.3 ± 0.4 | 0.41 ± 0.02 | 1.65 ± 0.09 | 2.47 ± 0.08 | 0.15 ± 0.01 | 1.1 ± 0.07 | elevated levels of ROS | 3.9 ± 0.3 | 61 ± 1 | 11.3 ± 0.5 | 24.1 ± 0.9 | 2.32 ± 0.01 | 17 ± 1 | Effect on growth of xenografts ([17]; HCT116 xenografts in mice): delay the growth of xenografts; Toxic side effects in xenograft-bearing mice ([17]; xenograft-bearing mice): few toxic side effects; First reduction step potential [18]: ca. −0.4 V; Fold less toxic toward zebrafish embryos compared to cisplatin ([9]; LC50 ratio vs cisplatin): 40 ×
